Results on one compound are retold here after patent US11772141B1, “Method for targeted regulation of soil microbes to synchronize heavy metal/metalloid transformation and greenhouse gas emission reduction and use” (priority 2022, dated 2023).

Assay [1] has as its system soil microbes. Conditions: Met 1 mM, Met:Fat 1:10 in combinations.
Protocol: 5 grams of arsenic-contaminated rice field soils taken from Hunan Province, China was placed into a 20 mL glass sample tube, 2.5 mL of sterilized culture medium was added, and then the glass sample tube was placed in an anaerobic glove box for cultivation. The culture medium was composed of 10 mM NH4Cl, 5 mM NaHCO3, 1 mM KH2PO4, 0.5 mM MgCl2, 0.5 CaCl2, 1 mL of L^−1 vitamin and 1 mL/L of trace elements. […] After addition of the Met and the Fat and after further reaction for 60 days, headspace gas was collected and measured by GC-TCD, a soil suspension was extracted, and ammonium dihydrogen phosphate was added to desorb adsorbed methyl arsenic. After the resulted soil suspension passed through a 0.22-micron membrane, methyl arsenic, including monomethylarsenic, dimethylarsenic and trimethylarsenic oxides, in a soil solution was measured by HPLC-ICPMS. […]
After further anaerobic culture for 60 days, headspace gas was collected and measured by GC-TCD, a soil suspension was extracted, and ammonium dihydrogen phosphate was added to desorb adsorbed methyl arsenic. After the resulted soil suspension passed through a 0.22-micron membrane, the methyl arsenic in the soil solution was measured by HPLC-ICPMS.
The test system of assay [2] is mcrA gene. Conditions: soil control 1.5*10^6.
Protocol: Construction of the plasmid standard was performed by ligating a vector pUC19 with a PCR product of arsM or mcrA gene. After a single clone was picked, plasmid DNA was extracted, the DNA concentration was measured with Qubit 3.0 Fluorometer, the gene copy number was calculated, and then the EASY dilution solution was diluted to 10^2-10^8(copy number per μL) to obtain a Standard curve.
mcrA amplification reaction program: at 95° C. for 10 min; at 95° C. for 15 s, at 58° C. for 30 s, and at 72° C. for 30 s, 40 cycles; and prolonging at 72° C. for 2 min.
Assay [3] deals with arsM gene. Conditions: soil control 950.
Protocol: Construction of the plasmid standard was performed by ligating a vector pUC19 with a PCR product of arsM or mcrA gene. After a single clone was picked, plasmid DNA was extracted, the DNA concentration was measured with Qubit 3.0 Fluorometer, the gene copy number was calculated, and then the EASY dilution solution was diluted to 10^2-10^8(copy number per μL) to obtain a Standard curve. […] Information and reaction procedures of the primers used for amplification of the arsM and mcrA genes were as follows:
arsM amplification reaction program: at 95° C. for 10 min; at 95° C. for 30 s, at 60° C. for 45 s, and at 72° C. for 1 min, 40 cycles; and prolonging at 72° C. for 10 min;

With `CSCC[C@H](N)C(=O)O` [methionine], the “production of methyl arsenic” value in assay [1] (60 days anaerobic reaction) was 0.1 µM. The methane emission in assay [1] (60 days, control group 5.5 mM) came out at 18.7 mM. In addition, the “transcript copy number of mcrA” value in assay [2] is given as 2.0*10^7 copies per g of soils. Moreover, the “transcript copy number of arsM” value in assay [3] is listed as 1200 copies per g of soils.
